Measured values reported in publication PMC3816703, “Toxicity Studies on Novel N-Substituted Bicyclo-Heptan-2-Amines at NMDA Receptors” (Pharmaceuticals, 2013).
Read-outs that look alike come from different tables or passages of the source.

Key:
MDCK cells = assay: MTT cell viability assay on MDCK cells (24 h treatment); assay type: cell-based, Canine; details: for IC50: Canis lupus familiaris, read-out: MTT test (IC50)
Procedure: (§1) MDCK cells were used to simulate toxicities of the novel NMDA receptor uncompetitive antagonists 5a–f on BBB in vitro [18, 19]. We treated cells with 0–500 µM concentrations of test compound or memantine for 24 h. Cell viability was assessed by the capacity of cells to reduce the MTT dye (Figure 2A,B). […] It is known, that under therapeutic conditions in patients, the serum level of memantine is about 1 µM [20]. Since the binding potencies of some of the target compounds are in same range (micromolar) as that of memantine, the 1 µM concentration was used as reference in estimating possible therapeutic indexes. […] The mean percentage of viable cells was 101 ± 0.24 (p > 0.05), 95.6 ± 0.25 (p > 0.05) for memantine and 104 ± 0.11 (p > 0.05), 105 ± 0.06 (p > 0.05) for compound 5a at 10 and 50 µM, respectively, as compared to untreated cells.
(§2) Mouse Neuro-2a (CCL-131, ATCC, Manassas, VA, USA) and MDCK (CCL-34, ATCC) were used in this study. The cells were routinely propagated using Dulbecco’s Modification of Eagle’s Medium (DMEM, ATCC) for N2a and Eagle’s Minimum Essential Medium (EMEM, ATCC) for MDCK cells, supplemented with 10% fetal bovine serum (FBS, ATCC) and 1% penicillin/ streptomycin (Gibco, Grand Island, NY, USA) in 100 cm^2 Petri-dishes (Corning, Tewksbury, MA, USA) at 37 °C in 5% CO2. For neuronal differentiation, N2a cells were cultivated in DMEM supplemented with 2% FBS in the presence of 20 µM retinoic acid (RA, Sigma, St. Louis, MO, USA).
(§3) All six compounds 5a–f were obtained as salts. Stock solutions (1 mM) were prepared in double distilled water. The treatment concentrations for the compounds and for memantine (Sigma) were 10, 50, 100, 200, 300, and 500 μM. Cells were allowed to attach overnight prior to treatment. H2O2 served as positive control. Working concentrations were prepared immediately prior to treatment by dilution with medium.
(§4) The MTT (3-(4,5-dimethylthiazole-2-yl)-2,5-diphenyltetrazolium bromide) assay is a well-documented and widely-used cell viability assay. MTT is incorporated into the cell by endocytosis and is reduced by mitochondrial enzymes in living cells to a blue colored formazan precipitate. The absorbance of dissolved formazan in the visible region correlates with the number of intact alive cells. Cells were plated at a concentration of 13,000 to 20,000 cells/well on a 96-well round-bottom plate (Fisher, Pittsburgh, PA, USA). The MTT assay (ATCC, 30-1010K) was performed according to the manufacturer’s instructions. The following determinants were optimized for each cell line: plating cell concentration; incubation time with MTT reagent, and incubation time with detergent reagent. Absorbance was recorded at 570 nm by a microtiter plate reader (VICTOR, PerkinElmer, Waltham, MA, USA). The number of surviving cells is directly proportional to the level of the formazan product generated. Each experiment was repeated on three separate occasions and results are presented as the mean absorbance ± S.E.M.
(§5) The Student’s t test was applied to evaluate the significance of differences among each group. A p value of 0.05 or less was considered to be significant. Error bars in the graphs are expressed as S.E.M. with experiments performed in triplicate. IC50 values were calculated according to the SoftMax Pro GxP analytical software. Standard Curves were plotted using the OD Mean Value (Y) versus Concentration (X) and applying a 4-Parameter fit with a variable weight source curve fit option of 1/Y^2. Results are presented as mean ± S.E.M.

N2a cells = assay: MTT cell viability assay on N2a cells (24 h treatment); assay type: cell-based, Mouse; details: Mus musculus, read-out: MTT test (IC50)
Procedure: (§6) To examine neuronal cell toxicity, N2a cells were exposed to each of compounds 5a–f or memantine for 24 h at 0–500 µM concentrations, and cell viability was measured by MTT assay. In the present experiments, increasing the concentration of antagonists increased the toxicity of both test compounds and memantine in dose dependent manner (Figure 4A,B). […] No significant reduction in cell concentration was observed using phase contrast microscopy (Figure 5). The mean percentage of viable cells was 94.6 ± 0.29 (p > 0.05), 91.6 ± 0.26 (p > 0.05) for memantine and 93 ± 0.35 (p > 0.05), 77 ± 0.35 (p > 0.05) for compound 5a at 10 and 50 µM, respectively, as compared to untreated cells.
as §2, §3, §4, §5

[1] = MTT cell viability assay on MDCK cells (24 h treatment); assay type: cell-based, Canine; details: dog, MDCK cells, 24 h, as compared to untreated cells, read-out: mean percentage of viable cells
Procedure: as §1, §2, §3, §4, §5

[2] = MTT cell viability assay on N2a cells (24 h treatment); assay type: cell-based, Mouse; details: mouse, N2a cells, 24 h, as compared to untreated cells, read-out: mean percentage of viable cells
Procedure: as §6, §2, §3, §4, §5

NMDA receptor = test system: NMDA receptor; design: method as in PMID 21496213; details: among compounds 5a–f; cited from earlier work
[3] = test system: MES (maximal electroshock)-induced neural damage; design: method as in PMID 21496213; details: rodents; among compounds 5a–f; cited from earlier work
[4] = patients; cited from earlier work
[5] = N2a cells, 24 h treatment, mean n = 3, concentration yielding 50% inhibition of mitochondrial enzyme activity

| SMILES | IC50 (MDCK cells; MDCK, 24 h) [µM] | IC50 (N2a cells; N2a, 24 h) [µM] | IC50 (N2a cells; [5]) [µM] | also measured |
| --- | --- | --- | --- | --- |
| c1ccc(C2(NCCN3CCCC3)CC3CCC2C3)cc1 (centres unmarked) [5e, 2-phenyl-N-(2-(pyrrolidin-1-yl)ethyl) bicyclo[2.2.1]heptan-2-amine] | 313 | 165 | – | – |
| c1ccc(C2(NCCN3CCCCC3)CC3CCC2C3)cc1 (centres unmarked) [5a, 2-phenyl-N-(2-(piperidin-1-yl)ethyl)bicyclo[2.2.1]heptan-2-amine] | 155 | 154 | – | viability at 24 h, 10 µM [1]: 104 ± 0.11%; viability at 24 h, 50 µM [1]: 105 ± 0.06%; viability at 24 h, 10 µM [2]: 93 ± 0.35%; viability at 24 h, 50 µM [2]: 77 ± 0.35%; affinity for NMDA receptor (NMDA receptor): highest affinity; protection from MES (maximal electroshock)-induced neural damage [3]: greatest degree of protection |
| Fc1ccc(C2(NCCN3CCCCC3)CC3CCC2C3)cc1 (centres unmarked) [5b] | 201 | 291 | – | – |
| CC12CC3CC(C)(C1)CC(N)(C3)C2 [memantine, 1-amino-3,5-dimethyladamantine, reference compound] | – | – | 219 | viability at 24 h, 10 µM [1]: 101 ± 0.24%; viability at 24 h, 50 µM [1]: 95.6 ± 0.25%; IC50 (MDCK cells; MDCK cells, 24 h treatment, mean n = 3, concentration yielding 50% inhibition of mitochondrial enzyme activity): 197 µM; concentration above which a concentration dependent decline in numbers of viable cells occurs (MDCK cells; MDCK cells, 0–500 µM, 24 h, MTT): higher than 100 µM; viability at 24 h, 10 µM [2]: 94.6 ± 0.29%; viability at 24 h, 50 µM [2]: 91.6 ± 0.26%; serum level under therapeutic conditions [4]: about 1 µM |
| Fc1ccc(C2(NCCN3CCOCC3)CC3CCC2C3)cc1 (centres unmarked) [5d, 2-(4-fluorophenyl)-N-(2-morpholino-ethyl)bicyclo [2.2.1]heptan-2-amine] | > 1000 | – | > 1000 | – |
| c1ccc(C2(NCCN3CCOCC3)CC3CCC2C3)cc1 (centres unmarked) [5c, N-(2-morpholinoethyl)-2-phenylbicyclo [2.2.1]heptan-2-amine] | 424 | 253 | – | – |
| Fc1ccc(C2(NCCN3CCCC3)CC3CCC2C3)cc1 (centres unmarked) [5f] | 305 | – | 71 | – |
